Assay [1] in a line: DPPH radical scavenging activity. The following applies: compound solution 0.2 mM in MeOH, DPPH 0.1 mM, 40 min, 20 °C. The text has this:
The redox activity of organosulfur compounds 1–6 can be assessed by the ability to interact with the stable radical 2,2-diphenyl-1-picrylhydrazyl (DPPH). The delocalization of the radical in the aromatic rings of DPPH ensures its high stability. Therefore, this method is widely used to determine the radical scavenging activity of compounds. It is known that there are two main mechanisms by which antioxidant molecules can deactivate free radicals: hydrogen atom transfer (HAT) and single electron transfer (SET). One of them may dominate depending on the conditions, the structure of the antioxidant and the type of analysis, but both will produce identical final products, despite the difference in mechanisms.
The free radical scavenging activity was evaluated using the stable radical 2,2-diphenyl-1-picrylhydrazyl (DPPH), according to the method described by Brand-Williams with a slight modification. Solutions of compounds in MeOH were studied at a concentration of 0.2 mM. The stock DPPH solution contained 0.2 mM of radical in MeOH. An amount of 0.1 mL of the test compound solution was added to 0.1 mL of DPPH solution (0.2 mM) in each cell so that the initial DPPH concentration in cells was 0.1 mM. The microplate was placed in a spectrophotometer and the decrease in the absorbance values of DPPH solution for 40 min at 20 °C was measured at λmax = 517 nm. The results were expressed as scavenging activity, calculated as follows: scavenging activity, % = [(A0 − A1)/A0] × 100, where A0 is the optical density of the control solution DPPH, and A1 is the optical density of the reaction mixture solution.
On the technique in general: DPPH is a stable violet radical that fades when it is reduced.

Assay [2] is described as follows: Ferrous ions (Fe2+) chelating activity (FIC). The following applies: for IC50: Fe2+ chelating activity; for FIC, % of Inhibition: compound 5 mM, ferrozine–Fe2+ complex formation. The text has this: Despite the important biological role of iron, it can cause various pathological diseases, such as neurodegenerative, liver and heart diseases, cancer, and diabetes. In addition, it is able to catalyze the Fenton reaction and lead to the formation of a highly reactive hydroxyl radical. In this regard, the process of transition metal chelation was studied as one of the possible mechanisms of the action of antioxidants. This assay was based on the reaction of binding Fe^2+ ions by the studied compounds under moderately acidic conditions (pH = 6). Unreacted Fe^2+ ions reacted with ferrozine to form a stable dark violet colored complex. […] The chelation of ferrous ions by compounds was estimated by method of Dinis et al.. Briefly, 10 μL of 2 mM FeCl2 was added to 20 μL of the investigated compound (5 mM) and 150 μL of EtOH. The reaction was initiated by the addition of 0.04 mL of 5 mM ferrozine solution. The mixture was left to stand at 35 °C for 10 min. The absorbance of the solution was thereafter measured at 562 nm. The percentage inhibition of ferrozine–Fe^2+ complex formation was calculated as [(A0 − As)/[…]] × 100, where A0 is the absorbance of the control, and As is the absorbance of the compound/standard. Na2EDTA was used as the positive control.

Assay [3] in a line: NBT assay, superoxide radical anion formation by xanthine oxidase. It counts as biochemical. The following applies: sample solution 5 mM in DMSO. The text has this:
The superoxide radical anion was generated in the xanthine/xanthine oxidase enzymatic system and reduced nitroblue tetrazolium (NBT) to an intensely blue colored diformazan (λ = 560 nm). There was a decrease in the concentration of diformazan in the presence of a potential antioxidant that absorbs O2^–•. […] Despite the fact that compounds 2 and 6 were structurally similar to the corresponding disulfides 3 and 4, they were not active in this assay.
EDTA, xanthine, bovine serum albumin, nitroblue tetrazolium, and xanthine oxidase (25 MU) were purchased from Sigma Aldrich, Burlington, MA, USA. The superoxide anions were generated enzymatically by the xanthine oxidase system. The reaction mixture consisted of 2.70 mL of 40 mM sodium carbonate buffer containing 0.1 mM EDTA (pH 10.0), 0.06 mL of 10 mM xanthine, 0.03 mL of 0.5% bovine serum albumin, 0.03 mL of 2.5 mM nitroblue tetrazolium, and 0.06 mL of the sample solution in DMSO at the concentration of 5 mM. An amount of 0.12 mL of xanthine oxidase (0.04 units) was added to the mixture at 25 °C, and the absorbance at 560 nm (by formation of blue formazan) was measured by microplate spectrophotometer for 60 s. A control experiment was carried out by replacing the sample solution with the same amount of DMSO.
Inhibition I (%) = [(1 − Ai/A0) × 100%], where Ai is the absorbance in the presence of the testing compound, A0 is the absorbance of the blank solution [78]. All experiments were performed three times.

For another assay, the system named is HCT-116. Description: MTT assay. It counts as cell-based, human. The following applies: Homo sapiens, HCT-116, 72 h. On the procedure:
(§1) The antiproliferative activity of aromatic oligosulfides 1–6 was determined against human cell lines, including colon carcinoma HCT-116, breast adenocarcinoma MCF-7, lung adenocarcinoma A-549, colorectal carcinoma SW-480, and non-tumourigenic WI-38, using the MTT assay (Table 4). […] However, some selectivity for cancer cells was evident and the IC50 values for non-tumourigenic cells were slightly higher for compounds 1 and 2.
(§2) Cell survival was determined by the MTT [3-(4,5-[…])-2,5-diphenyl tetrazolium bromide] assay by Niks method with small modifications. HCT-116 (colon carcinoma), MCF-7 (breast adenocarcinoma), A-549 (lung adenocarcinoma) and SW-480 (colorectal carcinoma) human cancer cell lines and WI-38 (cell line composed of fibroblasts) were cultured in DMEM (PanEco, Moscow, Russia) with Glutamin (PanEco, Moscow, Russia) and antibiotics (PanEco, Moscow, Russia) in CO2 (5%) at 37 °C. The compounds were dissolved (20 mM) in DMSO and then added to the cell culture medium at the required concentration with a maximum DMSO content of 0.5 v/v%. At these concentrations, DMSO had no effect on cell viability, as was shown in the control experiments. Cells were cultured in 96-well plates (7000 cells/well) and treated with various concentrations (from […]) of the test compounds as well as doxorubicin at 37 °C for 72 h. Cell viability was determined using the MTT assay, which quantified dehydrogenase activity. Then, the cells were incubated at 37 °C for 50 min with a solution of MTT ([…], 5 mg × mL^−1) (Sigma-Aldrich, St. Louis, MO, USA). The supernatant was discarded, and cells were dissolved in DMSO ([…]). The optical density of the solution was measured at 570 nm with use of a multiwall-plate reader (Anthos Zenyth 2000rt, Biochrom, Cambridge, UK), and the percentage of surviving cells was calculated from the absorbance of untreated cells. Each experiment was repeated at least three times, and each concentration was tested in at least three replicates. Data were presented as a graph of the percentage of surviving cells versus the concentration of the test substances. The meanings of 50% inhibition concentration (IC50) with standard deviation were calculated using GraphPad Prism Version 5.03 for Windows (GraphPad Software, San Diego, CA, USA).
In general terms: Formazan colour is commonly taken as a measure of viable cells.

The next assay deals with SW-480. Description: MTT assay. Format: cell-based, human. Conditions: Homo sapiens, SW480, 72 h. On the procedure:
as §1, §2

In the next assay the test system is WI-38. Description: MTT assay. Conditions: Homo sapiens, 72 h, non-tumourigenic cells. Format: cell-based. On the procedure: as §1, §2

From article PMC9229798, “Antioxidant Activity and Cytotoxicity of Aromatic Oligosulfides” (Molecules, 2022) come the findings set out here.

Entries after “also recorded” stand apart in the source; their conditions may differ.

Broadly, the IC50 is the concentration that inhibits the measured activity by half.

As for `c1ccc(SSSc2ccccc2)cc1` [Compound 1, diphenyl trisulfide], the “DPPH, % (scavenging activity)” value in assay [1] is on record as “non active”. Besides, the IC50 in assay [2] came to 7760 ± 20 µM; with HCT-116, 18.8 ± 1.4 µM; with SW-480 it was 23.8 ± 4.5 µM; in the assay on WI-38, 52.7 ± 8.5 µM. Besides, the “FIC, % of Inhibition” value in assay [2] was found to be 25.8 ± 1.1%. The “NBT, % Inhibition” value in assay [3] was “non active”.

With `COc1ccccc1SSc1ccccc1OC` [Compound 2, bis(2-methoxyphenyl) disulfide], the “DPPH, % (scavenging activity)” value in assay [1] is recorded as “non active”. Besides, the IC50 was greater than 10000 µM in assay [2], 24.4 ± 2.3 µM in the assay on HCT-116, 22.4 ± 3.8 µM with SW-480 and 31.9 ± 5.2 µM in the assay with WI-38. Further, in assay [2], the “FIC, % of Inhibition” value turned out to be 7.1 ± 0.2%. Further, in assay [3], the “NBT, % Inhibition” value is recorded as “not active; also recorded: non active”.

Consider `COc1ccc(SSc2ccc(OC)c(OC)c2)cc1OC` [Compound 3, bis(3,4-dimethoxyphenyl) disulfide], for which, in assay [1], the “DPPH, % (scavenging activity)” value is given as “non active”. The IC50 in assay [2] is greater than 10000 µM; with HCT-116 it was 18.9 ± 2.1 µM; in the assay on SW-480 it was 21.7 ± 2.4 µM; in the assay on WI-38, 32.8 ± 5.4 µM. Besides, in assay [2], the “FIC, % of Inhibition” value is 7.5 ± 0.3%. Besides, the “NBT, % Inhibition” value in assay [3] is 24.3 ± 0.05%.

`Oc1ccc(SSc2ccc(O)cc2)cc1` [Compound 4, 4,4′-dihydroxydiphenyl disulfide]: the “DPPH, % (scavenging activity)” value in assay [1] is recorded as 13.42 ± 0.02%. The IC50 in assay [2] came out at 5620 ± 40 µM; in the assay with HCT-116 it was 22 ± 1.5 µM; with SW-480 it was 39.4 ± 7.9 µM; with WI-38 it was 28.7 ± 5.3 µM. Also, the “FIC, % of Inhibition” value in assay [2] is 47.2 ± 1.5%. Further, the “NBT, % Inhibition” value in assay [3] is listed as 57.8 ± 0.07%.

On to `c1ccc(SSc2ccccc2)cc1` [Compound 5, diphenyl disulfide], for which the “DPPH, % (scavenging activity)” value in assay [1] was “non active”. The IC50 in assay [2] worked out at 3740 ± 20 µM; with HCT-116 it was 22.1 ± 1.7 µM; with SW-480 it was 30.6 ± 5.6 µM; with WI-38 it was 33.7 ± 9.1 µM. For the same compound, the “NBT, % Inhibition” value in assay [3] is listed as “non active”.

`CC(C)(C)c1cc(SSc2cc(C(C)(C)C)c(O)c(C(C)(C)C)c2)cc(C(C)(C)C)c1O` [Compound 6, bis(3,5-di-tert-butyl-4-hydroxyphenyl) disulfide]: the “DPPH, % (scavenging activity)” value in assay [1] stood at 81.56 ± 0.07%. The IC50 in assay [2] was 6100 ± 10 µM; with HCT-116, greater than 50 µM; with SW-480, greater than 50 µM; in the assay with WI-38, 115 ± 75 µM. Also, the “NBT, % Inhibition” value in assay [3] was “not active; also recorded: non active”.
